ChEMBL document CHEMBL5104111, “Boron-Containing heterocycles as promising pharmacological agents” (Bioorg Med Chem, 2022)
In brackets after ≈: the same amount, converted by molar mass.

Legend:
Escherichia coli [1] = test: Antibacterial activity against Escherichia coli assessed as bacterial growth inhibition; type: functional
Klebsiella pneumoniae [2] = test: Antibacterial activity against Klebsiella pneumoniae assessed as bacterial growth inhibition; type: functional
[3] = system: Mycobacterium tuberculosis; test: Antibacterial activity against Mycobacterium tuberculosis H37Rv ATCC 27294 assessed as bacterial growth inhibition by radiometry method; type: functional
Salmonella typhimurium = test: Antibacterial activity against Salmonella typhimurium Delta-119 assessed as bacterial growth inhibition incubated for 16 hrs by broth dilution method; type: functional, Salmonella enterica subsp. enterica serovar Typhimurium; details: Salmonella enterica
Klebsiella pneumoniae [4] = test: Antibacterial activity against Klebsiella pneumoniae Delta-217 assessed as bacterial growth inhibition incubated for 16 hrs by broth dilution method; type: functional
Proteus mirabilis = test: Antibacterial activity against Proteus mirabilis Delta-89 assessed as bacterial growth inhibition incubated for 16 hrs by broth dilution method; type: functional
L5178Y = test: Anticancer activity against mouse L5178Y cells assessed as cell growth inhibition incubated for 24 hrs by MTT assay; type: functional, cell-based
Streptococcus mutans = test: Antibacterial activity against Streptococcus mutans assessed as bacterial growth inhibition; type: functional
[5] = Inhibition of Escherichia coli LeuRS using Escherichia coli tRNA as substrate incubated for 20 mins in presence of 14C-leucine/ATP
Escherichia coli [6] = test: Antibacterial activity against Escherichia coli ATCC 25922 assessed as bacterial growth inhibition; type: functional
[7] = Binding affinity to Candida glabrata beta-carbonic anhydrase assessed as inhibition constant preincubated for 15 mins by bromothymol blue staining based assay; set-up: species or system Nakaseomyces glabratus
[8] = Binding affinity to Cryptococcus neoformans beta-carbonic anhydrase assessed as inhibition constant preincubated for 15 mins by bromothymol blue staining based assay
[9] = Cytotoxicity against HEK293T cells assessed as reduction in cell viability incubated for 48 hrs by MTT assay; type: toxicity, cell-based, HEK-293T; details: human
[10] = system: Mycobacterium tuberculosis; test: Antibacterial activity against Mycobacterium tuberculosis assessed as bacterial growth inhibition; type: functional
[11] = molecular target: cAMP and cAMP-inhibited cGMP 3',5'-cyclic phosphodiesterase 10A (Homo sapiens, UniProt Q9Y233); test: Inhibition of PDE10A (unknown origin)
Staphylococcus aureus [12] = test: Antibacterial activity against healthcare-associated Methicillin-resistant Staphylococcus aureus assessed as bacterial growth inhibition; type: functional
[13] = Lipophilicity, log P of the compound; type: physicochemical; details: octanol/water
Staphylococcus aureus [14] = test: Antibacterial activity against Staphylococcus aureus ATCC 43300 assessed as bacterial growth inhibition incubated for 1 hr by plate colony counting method; type: functional
[15] = system: Mycobacterium tuberculosis; test: Antibacterial activity against Mycobacterium tuberculosis H37Rv ATCC 25618 assessed as bacterial growth inhibition incubated for 5 days by fluorescence based assay; type: functional, organism-based; details: H37Rv ATCC 25618, 120 h
HepG2 = test: Cytotoxicity against human HepG2 cells assessed as cell growth inhibition incubated for 72 hrs by Cell Titer Glo assay; type: functional, cell-based; details: HepG2, 72 h
Verticillium dahliae = test: Antifungal activity against Verticillium dahliae assessed as fungal growth inhibition at 50 ug incubated for 96 hrs by disk diffusion method; type: functional; details: read-out: IZ
Aspergillus niger [16] = test: Antifungal activity against Aspergillus niger assessed as fungal growth inhibition at 50 ug incubated for 96 hrs by disk diffusion method; type: functional; details: read-out: IZ
Pseudomonas aeruginosa = test: Antibacterial activity against Pseudomonas aeruginosa assessed as bacterial growth inhibition by broth microdilution method; type: functional
Prototheca zopfii = test: Antimicrobial activity against Prototheca zopfii assessed as microbial growth inhibition by CLSI protocol based assay; type: functional
[17] = Anticancer activity against human 1321N1 cells assessed as cell growth inhibition by dynamic assay; type: functional, cell-based
Caco-2 = test: Anticancer activity against human Caco-2 cells assessed as cell growth inhibition by cytometry; type: functional, cell-based
Saccharomyces cerevisiae = test: Antifungal activity against Saccharomyces cerevisiae assessed as fungal growth inhibition at 100 ug; type: functional; details: read-out: IZ
Candida albicans = test: Antifungal activity against Candida albicans assessed as fungal growth inhibition at 25 ug incubated for 48 hrs by disk diffusion method; type: functional; details: read-out: IZ
Aspergillus niger [18] = test: Antifungal activity against Aspergillus niger assessed as fungal growth inhibition at 25 ug incubated for 48 hrs by disk diffusion method; type: functional; details: read-out: IZ
THP-1 = test: Antiinflammatory activity against human THP-1 cells assessed as inhibition of LPS-stimulated IL-1beta release measured after 1 hr by ELISA; type: functional, cell-based; details: THP-1, 1 h

Chain of cAMP and cAMP-inhibited cGMP 3',5'-cyclic phosphodiesterase 10A (Q9Y233 whole entry): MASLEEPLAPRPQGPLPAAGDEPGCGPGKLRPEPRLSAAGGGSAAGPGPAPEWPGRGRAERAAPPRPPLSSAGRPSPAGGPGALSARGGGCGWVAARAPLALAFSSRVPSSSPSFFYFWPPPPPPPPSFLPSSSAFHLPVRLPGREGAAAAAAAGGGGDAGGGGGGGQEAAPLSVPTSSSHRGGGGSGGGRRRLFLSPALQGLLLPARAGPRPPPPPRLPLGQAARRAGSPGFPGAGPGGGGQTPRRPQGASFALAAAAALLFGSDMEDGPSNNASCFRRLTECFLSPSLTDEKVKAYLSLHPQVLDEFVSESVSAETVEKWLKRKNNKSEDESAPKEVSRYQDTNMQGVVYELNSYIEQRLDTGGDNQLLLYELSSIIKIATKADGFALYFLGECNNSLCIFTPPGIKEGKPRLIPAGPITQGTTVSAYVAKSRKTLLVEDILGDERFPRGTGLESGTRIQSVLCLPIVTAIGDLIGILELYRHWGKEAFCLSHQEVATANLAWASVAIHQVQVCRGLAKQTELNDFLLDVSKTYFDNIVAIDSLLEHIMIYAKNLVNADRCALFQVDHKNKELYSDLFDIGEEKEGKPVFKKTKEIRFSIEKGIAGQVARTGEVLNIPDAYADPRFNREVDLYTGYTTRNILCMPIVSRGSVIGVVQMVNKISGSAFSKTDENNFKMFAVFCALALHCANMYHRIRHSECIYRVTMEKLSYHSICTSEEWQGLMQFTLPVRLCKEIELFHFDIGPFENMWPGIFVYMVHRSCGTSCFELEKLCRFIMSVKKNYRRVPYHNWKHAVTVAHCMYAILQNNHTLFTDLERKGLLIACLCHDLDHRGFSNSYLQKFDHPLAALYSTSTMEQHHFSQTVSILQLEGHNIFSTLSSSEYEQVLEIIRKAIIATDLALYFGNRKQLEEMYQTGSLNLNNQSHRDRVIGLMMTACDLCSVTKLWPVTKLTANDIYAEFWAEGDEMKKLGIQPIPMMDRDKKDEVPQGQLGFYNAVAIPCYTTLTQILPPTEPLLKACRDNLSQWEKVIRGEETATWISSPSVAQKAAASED

`Cc1ccc(S(=O)(=O)N2N=Cc3ccccc3B2O)cc1` gave an MIC (Escherichia coli [1]) of 25 µg/mL (≈ 83.3 µM) and an MIC (Klebsiella pneumoniae [2]) of 3.1 µg/mL (≈ 10.3 µM).
For `O=C1Nc2ccccc2B(O)N1c1ccccc1`, the MIC [3] was 8 µg/mL (≈ 33.6 µM).
Compound `CCCS(=O)(=O)N1N=Cc2sc(C)cc2B1O` has an MIC (Salmonella typhimurium) of 0.19 µg/mL (≈ 0.698 µM) and an MIC (Klebsiella pneumoniae [4]) of 0.31 µg/mL (≈ 1.14 µM).
`Cc1ccc2c(c1)C=NN(S(=O)(=O)c1ccc(N)cc1Cl)B2O` showed an MIC (Proteus mirabilis) of 0.78 µg/mL (≈ 2.23 µM) and an MIC (Klebsiella pneumoniae [4]) of 0.39 µg/mL (≈ 1.12 µM).
Work on `O=C1C[NH2+][B-](c2ccccc2)(c2ccccc2)O1` yielded an IC50 (L5178Y) of 22500 nM.
With `CC1NB(c2ccccc2)OC1c1ccccc1` (stereo unspecified) the MIC (Streptococcus mutans) was 1300 µM (≈ 308 µg/mL).
For `CCCCB1OC(c2ccccc2)C(C)N1C` (stereo unspecified), the MIC (Streptococcus mutans) was 500 µM (≈ 116 µg/mL).
Compound `Cl.NC[C@H]1OB(O)c2c(OCCCO)cccc21` has an IC50 [5] of 310 nM and an MIC (Escherichia coli [6]) of 1 µg/mL.
In the case of `O=C(Nc1ccc(F)cc1)Nc1ccc2c(c1)B(O)OC2`, the Ki [7] is reported as 75 nM and the Ki [8] is reported as 78 nM.
In the case of `OB1c2sccc2C=NN1Cc1ccccc1`, the CC50 at 48 h [9] is reported as > 100000 nM.
With `Cc1ccc2c(c1-c1ccccc1C(N)=O)B(O)OC2` the IC90 [10] was 1800 nM.
`CN(C(=O)c1nc(-c2cccnc2)cs1)c1ccc(OCB2C=Cc3ccccc3N2)cc1` showed an IC50 [11] of 330 nM.
`OCc1ccc2c(c1)C=CB(c1ccc(O)c(C34CC5CC(CC(C5)C3)C4)c1)N2` gave an MIC (Staphylococcus aureus [12]) of 64 µM (≈ 24.7 µg/mL) and a logP [13] of 0.12.
Compound `N#Cc1ccccc1-c1cccc2c1B(O)OC2` has an IC90 [10] of 30000 nM.
Compound `CN1C(=O)C2(Cc3ccccc3B(O)O2)c2ccccc21` (stereo unspecified) has a logP [13] of 3.52.
In the case of `Cc1cccc(N2B(c3cccc([N+](=O)[O-])c3)ON=C2c2ccccc2)c1`, the MIC (Staphylococcus aureus [14]) is reported as 0.06 µM (≈ 0.0214 µg/mL).
For `CS(=O)(=O)N1N=Cc2ccc(Oc3ccc(C(F)(F)F)cc3/C=N/O)cc2B1O`, the IC50 [15] was 110 nM and the IC50 (HepG2) was > 100000 nM.
Compound `COc1ccc2c(c1)C=NN(C(N)=S)B2O` has a zone of inhibition at 50 µg/disc (Verticillium dahliae) of 6.4 mm and a zone of inhibition at 50 µg/disc (Aspergillus niger [16]) of 2.3 mm.
For `Clc1ccc(-c2noc3c2COB(c2cccc(Br)c2)OC3)cc1`, the MIC (Pseudomonas aeruginosa) was 25 µg/mL (≈ 61.8 µM).
With `COc1ccc([N+]2=C(c3ccccc3)C=C(C(Cl)(Cl)Cl)O[B-]2(F)F)cc1` the MIC (Prototheca zopfii) was 0.3 µg/mL (≈ 0.717 µM).
With `Cc1ccc(S(=O)(=O)N2N=Cc3cc(C)oc3B2O)cc1` the MIC (Salmonella typhimurium) was 3.12 µg/mL (≈ 10.3 µM) and the MIC (Klebsiella pneumoniae [4]) was 1.56 µg/mL (≈ 5.13 µM).
Compound `CC(C)C1=[N+](Cc2cccc(C(F)(F)F)c2)[B-](c2ccccc2)(c2ccccc2)OC1=O` has an IC50 [17] of 268000 nM and an IC50 (Caco-2) of 76000 nM.
With `CCNC(=S)N1N=Cc2ccccc2B1O` the zone of inhibition at 100 µg/disc (Saccharomyces cerevisiae) was 4.3 mm.
Work on `C=CCNC(=S)N1N=Cc2ccccc2B1O` yielded a zone of inhibition at 25 µg/disc (Candida albicans) of 9 mm and a zone of inhibition at 25 µg/disc (Aspergillus niger [18]) of 7 mm.
`CC(=O)C1=C(C(Cl)(Cl)Cl)N[B-](c2ccccc2)(c2ccccc2)[O+]=C1C` showed an IC50 (THP-1) of 574 nM.
